Laboratory results from PMC11579541, “In vitro, in vivo, and in silico approaches for evaluating the preclinical DMPK profiles of ammoxetine, a novel chiral serotonin and norepinephrine reuptake inhibitor” (Frontiers in Pharmacology, 2024).
Where “and” joins values, the source holds several entries; their conditions need not be identical. Equal entries are not always repeated.

Key:
[1] = PPB assay by ultrafiltration, rat plasma; format: in vitro ADME, rats
Procedure: The PPB of ammoxetine was determined using the ultrafiltration method. Triplicate samples of rat, dog, or human plasma were spiked with ammoxetine at three final concentrations (50, 150, and 450 ng/mL). The spiked plasma samples were then incubated in a 37°C air-bath shaker for 1 h until equilibrium was reached. After incubation, 400 μL of the plasma samples were transferred to pre-saturated ultrafiltration devices. These devices were subsequently centrifuged at 13,800×g and 20°C for 20 min to separate the unbound ammoxetine. 100 μL of the test samples were taken and mixed with 100 μL of the IS, L-phencynonate (50 ng/mL), and 300 μL of methanol. Following centrifugation at 13,800×g for 10 min, the supernatants were used to determine the total and free concentrations of ammoxetine in the plasma (C t , C f ) using an LC-MS-MS method. The PPB rate (%) of ammoxetine was calculated by dividing (C t −C f ) by C t .

[2] = Hepatic microsome stability assay, DLM; format: in vitro ADME, dog; conditions: beagle, dog, liver microsomes, pH 7.4; 1 μmol/L, 0.2 g/L microsomes, NADPH
Procedure: (§1) A hepatic microsome stability assay was conducted to investigate the metabolic disposition of ammoxetine. In this assay, 100 μL of ammoxetine (2.5 μmol/L) was incubated at 37°C with 100 μL of liver microsomes (RLM, DLM, MLM, or HLM) formulated in a 5 mmol/L dipotassium hydrogen phosphate (K2HPO4) buffer at pH 7.4. The concentration of microsomes was 0.5 g/L. To initiate the incubations, 50 μL of NADPH solution preincubated at 37°C was added. […] Parallel triplicate samples were prepared for each time point, including 0, 2, 5, 10, 15, 30, 60, 90, and 120 min. To stop the reactions at each time point, 250 μL of ice-cold precipitating agent (acetonitrile/methanol, 1:1, v/v) containing 500 ng/mL of L-phencynonate (IS) was added to the incubation mixture. The samples were vortexed for 2 min at 4°C and then centrifuged at 13,800×g for 10 min. The supernatants were analyzed using an LC-MS-MS approach. […]
(§2) In Formula 3, t1/2 (min) represents the half-life of ammoxetine in liver microsomes. It is calculated by dividing −0.693 by the resulting slope (k e) obtained from a natural logarithm plot of the remaining concentration of ammoxetine against incubation time. […]

DLM = assay: Hepatic microsome stability assay, DLM; format: in vitro ADME, dog; conditions: predicted hepatic clearance
Procedure: as §1, §2

[3] = Stability of ammoxetine in rat plasma (method validation); format: in vitro ADME
Procedure: (§3) LC-MS-MS methods were developed and validated to accurately quantify ammoxetine in rat and beagle dog plasma, as well as in rat tissues, urine, feces, and bile. The methods involved direct protein precipitation using methanol, providing a straightforward and rapid sample preparation process with high extraction recovery rates (absolute recoveries >85% in all matrices). […] The precision and accuracy of the plasma methods were evaluated through intra-day and inter-day analyses, yielding satisfactory results. Additionally, stability tests conducted in rat and beagle dog plasma met the analytical requirements for determination. Furthermore, the majority of the analytes met the necessary criteria for matrix effects when quantifying ammoxetine in biological samples. The developed methods are well-suited for determining ammoxetine concentrations in rat and beagle dog biological samples, enabling in vivo studies of this compound. They provide specific and highly sensitive quantification, facilitating investigations into the drug’s behavior in vivo. Detailed results regarding the establishment and validation of these analytical methods can be found in Supplementary Data Sheet 2.

CYP 2C19 = CYP 2C19 (Homo sapiens, UniProt P33261); assay: Phenotyping with recombinant human CYP 2C19; format: in vitro ADME; set-up: purchased BD (Woburn, USA); conditions: 5 μmol/L, 25 pmol/mL CYP, 1 h
Chain of CYP 2C19 (P33261 whole entry): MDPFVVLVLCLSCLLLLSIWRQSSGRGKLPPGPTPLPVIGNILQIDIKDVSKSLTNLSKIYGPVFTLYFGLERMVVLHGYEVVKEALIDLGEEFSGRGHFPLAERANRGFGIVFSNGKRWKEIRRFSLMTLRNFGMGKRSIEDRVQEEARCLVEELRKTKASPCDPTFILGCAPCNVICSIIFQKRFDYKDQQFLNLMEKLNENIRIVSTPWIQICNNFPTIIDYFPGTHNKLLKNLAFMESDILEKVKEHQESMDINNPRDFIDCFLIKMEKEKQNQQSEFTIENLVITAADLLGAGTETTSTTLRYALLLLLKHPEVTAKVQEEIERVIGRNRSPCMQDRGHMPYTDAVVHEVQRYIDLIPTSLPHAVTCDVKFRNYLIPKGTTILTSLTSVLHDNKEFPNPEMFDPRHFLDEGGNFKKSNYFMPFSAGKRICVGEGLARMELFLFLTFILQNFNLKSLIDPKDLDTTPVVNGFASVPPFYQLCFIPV
Procedure: Ammoxetine (final concentration 5 μmol/L) was incubated with recombinant human CYP 3A4, CYP 1A2, CYP 2C9, CYP 2C19, and CYP 2D6 (final concentration 25 pmol/mL) in a 5 mmol/L K2HPO4 buffer at pH 7.4. The incubations were performed in quintuplicate. NADPH (final concentration 1 mmol/L) was added to initiate the incubation process. The mixture was then incubated at 37°C for 1 h. To stop the reaction, 200 μL of ice-cold acetonitrile/methanol (1:1, v/v) containing 500 ng/mL of L-phencynonate (IS) was added. The samples were vortexed for 2 min and centrifuged at 13,800×g and 4°C for 10 min. The supernatants obtained were analyzed using an LC-MS-MS method. To establish appropriate controls, zero-time controls and blank controls in the absence of NADPH were set up in parallel.

[4] = Stability of ammoxetine in dog plasma (method validation); format: in vitro ADME
Procedure: as §3

[5] = Hepatic microsome stability assay, HLM; format: in vitro ADME, human; conditions: human, liver microsomes, pH 7.4; 1 μmol/L, 0.2 g/L microsomes, NADPH
Procedure: as §1, §2

[6] = 5 ng/mL, in auto-sampler for 24h
[7] = 5 ng/mL, room temperature for 4h
[8] = 100 ng/mL, in auto-sampler for 24h
[9] = 100 ng/mL, room temperature for 4h

fraction unbound at 1 h, 50 ng/mL ([1]; 50 ng/mL, read-out: Percentage of ammoxetine-protein binding rate (%) (converted)): 0.338
fraction unbound at 1 h, 150 ng/mL ([1]; 150 ng/mL, read-out: Percentage of ammoxetine-protein binding rate (%) (converted)): 0.447
fraction unbound at 1 h, 450 ng/mL ([1]; 450 ng/mL, read-out: Percentage of ammoxetine-protein binding rate (%) (converted)): 0.506
fraction unbound at 1 h ([1]; approximate range over 50-450 ng/mL, read-out: PPB rate): 0.4 to 0.5
half-life at 1 μmol/L [2]: 2.31 ± 0.0493 h
CL h (DLM): 16.64 ± 0.17 mL/min/kg
Stability in rat plasma, Measured (%) ([3]; 5 ng/mL, -30℃ for 15d): 106.00±2.00%
Stability in rat plasma, Measured (%) [3, 6]: 114.00±10.00%
Stability in rat plasma, Measured (%) [3, 7]: 94.00±6.00%
Stability in rat plasma, Measured (%) ([3]; 100 ng/mL, -30℃ for 15d): 105.90±8.30%
Stability in rat plasma, Measured (%) [3, 8]: 111.20±5.90%
Stability in rat plasma, Measured (%) [3, 9]: 108.90±7.40%
Stability in rat plasma, Measured (%) ([3]; 800 ng/mL, -30℃ for 15d): 111.74±2.73%
Stability in rat plasma, Measured (%) ([3]; 800 ng/mL, in auto-sampler for 24h): 106.49±0.78%
Stability in rat plasma, Measured (%) ([3]; 800 ng/mL, room temperature for 4h): 114.33±0.73%
Transformation ratio% (CYP 2C19): 26.27±1.85% and 26.27%
residuary concentration of ammoxetine, Mean±SD (CYP 2C19): 5.05±0.13
Stability in dog plasma, Accuracy/% ([4]; 5 ng/mL, 0d (-30℃)): 91.60±7.22%
Stability in dog plasma, Accuracy/% ([4]; 5 ng/mL, 15d (-30℃)): 97.58±13.78%
Stability in dog plasma, Accuracy/% ([4]; 5 ng/mL, 25d (-30℃)): 97.61±9.77%
Stability in dog plasma, Accuracy/% [4, 6]: 96.64±4.72%
Stability in dog plasma, Accuracy/% ([4]; 5 ng/mL, repeated freezing and thawing for 3 times): 96.59±4.01%
Stability in dog plasma, Accuracy/% [4, 7]: 99.00±11.24%
Stability in dog plasma, Accuracy/% ([4]; 100 ng/mL, 0d (-30℃)): 100.10 ±1.62%
Stability in dog plasma, Accuracy/% ([4]; 100 ng/mL, 15d (-30℃)): 98.63±4.19%
Stability in dog plasma, Accuracy/% ([4]; 100 ng/mL, 25d (-30℃)): 101.68 ±6.57%
Stability in dog plasma, Accuracy/% [4, 8]: 99.51±7.50%
Stability in dog plasma, Accuracy/% ([4]; 100 ng/mL, repeated freezing and thawing for 3 times): 98.25±6.55%
Stability in dog plasma, Accuracy/% [4, 9]: 101.87 ±8.27%
Stability in dog plasma, Accuracy/% ([4]; 1200 ng/mL, 0d (-30℃)): 92.06±3.06%
Stability in dog plasma, Accuracy/% ([4]; 1200 ng/mL, 15d (-30℃)): 92.48±4.64%
Stability in dog plasma, Accuracy/% ([4]; 1200 ng/mL, 25d (-30℃)): 93.96±3.46%
Stability in dog plasma, Accuracy/% ([4]; 1200 ng/mL, in auto-sampler for 24h): 92.32±4.25%
Stability in dog plasma, Accuracy/% ([4]; 1200 ng/mL, repeated freezing and thawing for 3 times): 92.01±6.32%
Stability in dog plasma, Accuracy/% ([4]; 1200 ng/mL, room temperature for 4 h): 93.89±4.32%
half-life at 1 μmol/L [5]: 4.16 ± 0.101 h
SMILES: CNCC[C@H](Oc1cccc2c1OCO2)c1cccs1 [ammoxetine]
